Results published in patent publication US12102631B2, “Quinolylnitrones for the treatment and prevention of a cerebral stroke or ischaemia” (ISQUAEMIA BIOTECH, S.L., priority 2018, dated 2024).

Tested on: primary neuronal cultures from rat cerebral cortex
Test: Neuroprotection (MTT cell viability) in primary neuronal cultures exposed to oxygen-glucose deprivation (OGD)
Assay type: cell-based
Details: 24 h recovery after 4 h OGD, R24 h = 0%, control = 100%
Description: Primary neuronal cultures. Primary neuronal cultures from rat cerebral cortex were prepared as previously described.^54 All procedures associated with animal experiments were approved by the Ethics Committee of the Hospital Ramón y Cajal, Madrid (Spain). Cell suspensions from cerebral cortex were prepared from 16- to 17-day-old Sprague-Dawley rat embryos. Living cells in cell suspension were counted by trypan blue exclusion method. Cells were seeded on plastic multidishes precoated with 0.05 mg/mL poly-D-lysine at a density of 2.5×10^5 cells/cm^2 and were kept at 37° C. in a 6.5% CO2 atmosphere in high glucose Dulbecco's medium supplemented with 15% heat-inactivated (56° C. for 30 min) foetal calf serum. After 24 h, cultured cells were […] to induce experimental ischemia.^23 Cultured cells were washed and placed in glucose-free Dulbecco's medium (bubbled with 95% N2/5% CO2 for 30 min), and maintained in a humidified hypoxia chamber equipped with an oxygen and carbon dioxide control unit (Biospherix) at 6.5% CO2 and <0.1% O2 in N2 at 37° C. Cells were exposed to OGD for a period of 4 h (OGD 4 h). At the end of the OGD period, culture medium was replaced with oxygenated serum-free medium, and cells were placed and maintained in the normoxic incubator for 24 h to recovery (R24 h). In the neuroprotection experiments, the compounds were added at the onset of recovery period. Control cultures in Dulbecco's medium containing glucose were kept in the normoxic incubator for the same period of time as the OGD, and then medium (Dulbecco's/Ham's F12, 1:1 [vol/vol], 5 mg/mL glucose, 2 mM L-glutamine, and 1 mM sodium pyruvate, and supplemented with 100 μg/mL transferrin, 100 μM putrescine, 20 nM progesterone, 30 nM sodium selenite and 5 μg/mL insulin). Here, 6-7 day old cultured neurons were used in the experiments, and contained 90% β-III-tubulin-positive mature neurons, as described previously.^55
Exposure of cell cultures to oxygen-glucose deprivation and treatments. Primary neuronal cultures were exposed to […]. Control experiments included the same amounts of vehicle (final concentration<0.5% ethanol). Nitrone 2 was used as reference compound for neuroprotection. The experimental procedures were blindly performed, assigning a random order to each assayed nitrone. Nitrones were analyzed independently four-eight times with different batch of cultures and each experiment was run in quadruplicate.
Cell viability assay. Cell viability was evaluated by quantification of living, metabolically active cells, as determined by a colorimetric assay using the photometric reduction of 3-(4,5-dimethylthiazol-2-yl)-2,5-diphenyl tetrazolium bromide (MTT) (Roche) to a blue formazan product. The assay of living, metabolically active cells was performed by incubating with 0.2 mg/mL MTT in the culture medium for 1.5 h in an incubator at 37° C. in a 6.5% CO2 atm. After the incubation period, cells were lysed with an equal volume of 10 mM HCl and 10% SDS overnight. Values were quantified by absorbance (test 595 nm, reference 690 nm). Decreased MTT activity denotes impairment of mitochondrial function and is considered to be an index of cell damage. Primary neuronal cultures were collected at times indicated for MTT determination.
Neuroprotection of compounds was evaluated by a cell viability assay. The neuroprotective effect of the compounds 5-32 was evaluated on primary neuronal cultures from cerebral cortex subjected to oxygen-glucose deprivation (OGD) to induce experimental ischemia. Afterwards, cultured neurons were placed and kept in normoxic and normoglycemic conditions to recovery. […]

| SMILES | viability at 10 µM (Rattus norvegicus, 10 μM) | viability at 1 µM (Rattus norvegicus, 1 μM) | viability at 100 µM (Rattus norvegicus, 100 μM) | viability at 250 µM (Rattus norvegicus) | further results |
| --- | --- | --- | --- | --- | --- |
| Cc1ccc2nc(Cl)c(/C=[N+](\[O-])Cc3ccccc3)cc2c1 [Compound 4, (Z)—N-benzyl-1-(2-chloro-6-methylquinolin-3-yl)methanimine oxide, reference compound] | 55.4 ± 1.74% |  |  |  | viability at 50 µM (Rattus norvegicus, 50 μM): 56.8 ± 2.57% |
| Cc1ccc2nc(Cl)c(C=NO)cc2c1 [Compound 6] |  |  |  |  | Neuroprotection (%) (0.5 μM): 8.30 ± 0.62%; Neuroprotection (%) (1 μM): 11.28 ± 1.32%; Neuroprotection (%) (10 μM): <0%; Neuroprotection (%) (100 μM): <0% |
| Cc1ccc2nc(Cl)c(/C=[N+](\[O-])c3ccccc3)cc2c1 [Compound 11, (Z)-1-(2-Chloro-6-methylquinolin-3-yl)-N-phenylmethanimine oxide] | 36.5 ± 1% | 21.1 ± 0.31% | < 0% | 1 ± 0.07% |  |
| Cc1ccc2ncc(/C=[N+](\[O-])Cc3ccccc3)cc2c1 [Compound 12, (Z)—N-Benzyl-1-(6-methylquinolin-3-yl)methanimine oxide] | 37.7 ± 0.66% | 37 ± 0.05% | 34.4 ± 0.67% | 34.11 ± 0.15% |  |
| Cc1ccc2[nH]c(=O)c(/C=[N+](\[O-])Cc3ccccc3)cc2c1 [Compound 13, (Z)—N-Benzyl-1-(6-methyl-2-oxo-1,2-dihydroquinolin-3-yl)methanimine oxide] | 35.9 ± 1.46% |  | 42 ± 1.86% | 29.8 ± 1.25% |  |
| COc1nc2ccc(C)cc2cc1/C=[N+](\[O-])Cc1ccccc1 [Compound 14, (Z)—N-Benzyl-1-(2-methoxy-6-methylquinolin-3-yl)methanimine oxide] | 23.7 ± 1.77% | 17.6 ± 1.11% | < 0% |  |  |
| CNc1nc2ccc(C)cc2cc1/C=[N+](\[O-])Cc1ccccc1 [Compound 15, (Z)—N-Benzyl-1-(6-methyl-2-(methylamino)quinolin-3-yl)methanimine oxide] | < 0% | 8.5 ± 0.18% |  |  | viability at 5 µM (Rattus norvegicus, 5 μM): 1.57 ± 0.03% |
| Cc1ccc2nc(N(C)C)c(/C=[N+](\[O-])Cc3ccccc3)cc2c1 [Compound 16, (Z)—N-Benzyl-1-(2-(dimethylamino)-6-methylquinolin-3-yl)methanimine oxide] | 34.3 ± 0.59% | 12.9 ± 0.34% | < 0% | < 0% |  |
| Cc1ccc2[nH]c(=O)c(/C=[N+](\[O-])C(C)(C)C)cc2c1 [Compound 17, (Z)—N-tert-Butyl-1-(6-methyl-2-oxo-1,2-dihydroquinolin-3-yl)methanimine oxide] | 20.2 ± 1.1% |  | 17.6 ± 1.35% | 10.9 ± 0.88% |  |
| [O-]/[N+](=C\c1cc2ccccc2nc1Cl)Cc1ccccc1 [Compound 20, (Z)—N-Benzyl-1-(2-chloroquinolin-3-yl)methanimine oxide] | < 0% | 32.8 ± 2.72% | < 0% |  |  |
| COc1nc2ccccc2cc1/C=[N+](\[O-])Cc1ccccc1 [Compound 21, (Z)—N-Benzyl-1-(2-methoxyquinolin-3-yl)methanimine oxide] | 24.2 ± 0.36% | < 0% | < 0% |  |  |
| [O-]/[N+](=C\c1cc2cc(O)ccc2nc1Cl)Cc1ccccc1 [Compound 25, (Z)—N-Benzyl-1-(2-chloro-6-hydroxyquinolin-3-yl)methanimine oxide] | < 0% | 25.15 ± 0.14% | < 0% | < 0% |  |
| [O-]/[N+](=C\c1cc2cc(Cl)ccc2nc1Cl)Cc1ccccc1 [Compound 26, (Z)—N-Benzyl-1-(2,6-dichloroquinolin-3-yl)methanimine oxide] | 37.7 ± 0.52% | 41.72 ± 0.3% | < 0% | 0.35 ± 0.02% |  |
| COc1ccc2cc(/C=[N+](\[O-])Cc3ccccc3)c(Cl)nc2c1 [Compound 27, (Z)—N-Benzyl-1-(2-chloro-7-methoxyquinolin-3-yl)methanimine oxide] | 28 ± 1.15% | 26.6 ± 0.37% | 19.4 ± 1.51% |  |  |
